Patent publication EP0450097B1, “BENZOHETEROCYCLIC COMPOUNDS” (OTSUKA PHARMACEUTICAL CO., LTD., priority 1989, dated 1991)

Assays:
V₁ receptor = target: T1, V₁ receptor (Rattus norvegicus, UniProt P30560); assay: V₁ receptor binding assay ([³H]-Arg-vasopressin, rat liver plasma membrane preparations); conditions: 37°C for 10 minutes
T1 construct: Using rat liver plasma membrane preparations; from tissue; host or cells: rat liver plasma membranes
Experimental: Using rat liver plasma membrane preparations prepared according to Ichihara's method [cf: Akira Ichihara, J. Bio. Chem., 258, 9283 (1983)], the plasma membrane (50000dpm, 2x10⁻¹⁰ M) of [³H]-Arg-vasopressin and a test compound (60 µg, 10⁻⁸-10⁻⁴ M) are incubated at 37°C for 10 minutes in 100 mM Tris-HCl buffer (pH: 8.0, 250 µl) containing 5 mM MgCl₂, 1 mM EDTA and 0.1 % BSA. After incubation, the mixture is filtered three times using the glass filter (GF/F) so as to separate the membrane preparation combined with vasopressin and then washed with the buffer (5 ml). This glass filter is taken out and mixed with liquid scintillation cocktail. The amount of [³H]-vasopressin combined with the membrane is measured by liquid scintillation counter and the rate of the inhibitory effect of the test compound is estimated according to the following equation. Rate of the inhibitory effect (%) = 100 -(C1 - B1)/(C0 - B1)X 100 [formula] C¹: The amount of [³H]-vasopressin combined with the membrane in the presence of the test compound (in prescribed amount). C⁰: The amount of [³H]-vasopressin combined with the membrane in the absence of the test compound. B¹: The amount of [³H]-vasopressin combined with the membrane in the presence of the excess amount of vasopressin (10⁻⁶ M).
The results are expressed as IC₅₀ values, which is the concentration of the test compound required to achieve the inhibitory effect in the rate of 50 %.

V₂ receptor = target: T2, V₂ receptor (Rattus norvegicus, UniProt Q00788); assay: V₂ receptor binding assay ([³H]-Arg-vasopressin, rat kidney plasma membrane preparations); conditions: 4°C for 3 hours
T2 construct: Using rat kidney plasma membrane preparations; from tissue; host or cells: rat kidney plasma membranes
T2 sequence (Q00788 whole entry): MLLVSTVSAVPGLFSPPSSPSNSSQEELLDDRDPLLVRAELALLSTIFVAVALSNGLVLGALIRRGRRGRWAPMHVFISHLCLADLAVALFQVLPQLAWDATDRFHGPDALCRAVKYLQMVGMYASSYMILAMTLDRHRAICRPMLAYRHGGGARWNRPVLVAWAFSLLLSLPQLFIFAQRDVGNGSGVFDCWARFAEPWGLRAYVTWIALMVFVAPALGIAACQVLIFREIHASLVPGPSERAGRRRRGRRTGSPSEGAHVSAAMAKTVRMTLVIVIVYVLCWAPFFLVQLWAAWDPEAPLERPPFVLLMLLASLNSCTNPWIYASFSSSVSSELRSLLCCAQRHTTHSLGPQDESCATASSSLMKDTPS
Method in brief: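 Rat kidney plasma membranes incubated with [³H]-vasopressin and test compound, then filtered on GF/F glass filters and bound radioactivity counted by liquid scintillation.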

T1 sequence (P30560 whole entry): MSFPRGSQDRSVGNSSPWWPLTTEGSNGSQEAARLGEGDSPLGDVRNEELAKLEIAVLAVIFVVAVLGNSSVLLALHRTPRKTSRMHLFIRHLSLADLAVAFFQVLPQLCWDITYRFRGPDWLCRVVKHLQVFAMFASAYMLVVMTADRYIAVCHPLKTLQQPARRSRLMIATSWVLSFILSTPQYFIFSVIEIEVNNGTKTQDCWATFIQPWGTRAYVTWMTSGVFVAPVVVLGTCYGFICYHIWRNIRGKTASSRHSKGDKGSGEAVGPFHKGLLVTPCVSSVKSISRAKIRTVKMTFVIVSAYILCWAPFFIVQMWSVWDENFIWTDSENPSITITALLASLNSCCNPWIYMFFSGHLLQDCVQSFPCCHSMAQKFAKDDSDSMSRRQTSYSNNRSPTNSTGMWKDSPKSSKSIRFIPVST

SMILES | IC50 (V₁ receptor) | IC50 (V₂ receptor)
COc1cc(C(=O)N2CCCC(NC3CC3)c3cc(Cl)ccc32)ccc1NC(=O)c1ccccc1Cl (stereo not drawn) [compound 322] | 44 nM | 25 nM
Cc1ccccc1C(=O)Nc1ccc(C(=O)N2CCCC(O)c3ccccc32)cc1 (stereo not drawn) [compound 143] | 150 nM | 8 nM
CNC(=O)OC1CCCN(C(=O)c2ccc(NC(=O)c3ccccc3C)cc2)c2ccccc21 (stereo not drawn) [compound 196] | 400 nM | 13 nM
Cc1ccccc1C(=O)Nc1ccc(C(=O)N2CCCC(NC3CC3)c3cc(Cl)ccc32)cc1 (stereo not drawn) [compound 310] | 65 nM | 8 nM
Cc1ccccc1C(=O)Nc1ccc(C(=O)N2CCCN(C)c3ccccc32)cc1 [compound 90] | 380 nM | 14 nM
COc1cc(C(=O)N2CCCCc3ccccc32)ccc1NC(=O)C1CCCCC1 [compound 76] | 42 nM | 17 nM
Cc1ccccc1C(=O)Nc1ccc(C(=O)N2CCCC(CNC=O)c3ccccc32)cc1 (stereo not drawn) [compound 269] | 480 nM | 3 nM
Cc1ccccc1NCC(=O)Nc1ccc(C(=O)N2CCCC(N(C)C)c3ccccc32)cc1 (stereo not drawn) [compound 316] | 470 nM | 60 nM
O=C(CNc1ccccc1Cl)Nc1ccc(C(=O)N2CCCCc3ccccc32)cc1 [compound 116] | 40 nM | 39 nM
CC(=O)N1CCN(C(=O)COC2CCCN(C(=O)c3ccc(NC(=O)c4ccccc4C)cc3)c3ccccc32)CC1 (stereo not drawn) [compound 288] | 260 nM | 15 nM
Cc1ccccc1C(=O)Nc1ccc(C(=O)N2CCSCc3ccccc32)cc1 [compound 192] | 54 nM | 11 nM
Cc1ccccc1C(=O)Nc1ccc(C(=O)N2CCCC(OCC(=O)N(C)CCO)c3ccccc32)cc1 (stereo not drawn) [compound 293] | 190 nM | 65 nM
Cc1ccccc1C(=O)Nc1ccc(C(=O)N2CCCC(OCC(=O)NCc3ccncc3)c3ccccc32)cc1 (stereo not drawn) [compound 290] | 210 nM | 21 nM
Cc1ccccc1C(=O)Nc1ccc(C(=O)N2CCCC(OCC(=O)N3CCOCC3)c3ccccc32)cc1 (stereo not drawn) [compound 278] | 300 nM | 13 nM
CCN(CC(=O)Nc1ccc(C(=O)N2CCCC(OCC(=O)N(C)C)c3ccccc32)cc1)c1ccccc1 (stereo not drawn) [compound 313] | 32 nM | 12 nM
Cc1ccccc1C(=O)Nc1ccc(C(=O)N2CCCC(CN=[N+]=[N-])c3ccccc32)cc1 (stereo not drawn) [compound 250] | 190 nM | 120 nM
CC(C)NCCCCOc1ccccc1C(=O)Nc1ccc(C(=O)N2CCCC(O)c3ccccc32)cc1 (stereo not drawn) [compound 312] | 56 nM | 290 nM
Nc1cccc(C(=O)Nc2ccc(C(=O)N3CCCCc4ccccc43)cc2)c1 [compound 67] | 340 nM | 50 nM
Cc1ccccc1C(=O)Nc1ccc(C(=O)N2CCCCCc3ccccc32)cc1 [compound 36] | 410 nM | 28 nM
O=C(Nc1ccc(C(=O)N2CCC=Cc3ccccc32)cc1)c1ccccc1Cl [compound 207] | 160 nM | 45 nM
CNC1CCCN(C(=O)c2ccc(NC(=O)c3ccccc3C)cc2)c2ccc(Cl)cc21 (stereo not drawn) [compound 287] | 64 nM | 7 nM
CCN(CC(=O)Nc1ccc(C(=O)N2CCCC(O)c3ccccc32)c(Cl)c1)c1ccccc1 (stereo not drawn) [compound 222] | 96 nM | 10 nM
CC(=O)NCCCOC1CCCN(C(=O)c2ccc(NC(=O)c3ccccc3C)cc2)c2ccccc21 (stereo not drawn) [compound 174] | 140 nM | 7 nM
Cc1ccccc1C(=O)Nc1ccc(C(=O)N2CCCC(OC(=O)N(C)C)c3ccccc32)cc1 (stereo not drawn) [compound 187] | 450 nM | 29 nM

SMILES | IC50 (V₁ receptor) | IC50 (V₂ receptor)
NCCCCOc1ccccc1C(=O)Nc1ccc(C(=O)N2CCCCc3ccccc32)cc1 [compound 70] | 41 nM | 12 nM
Cc1ccccc1C(=O)Nc1ccc(C(=O)N2CCCC(COS(C)(=O)=O)c3ccccc32)cc1 (stereo not drawn) [compound 235] | 88 nM | 6 nM
CN(C)C1CCCN(C(=O)c2ccc(NC(=O)CNc3ccccc3Cl)cc2)c2ccccc21 (stereo not drawn) [compound 315] | 380 nM | 25 nM
Cc1ccccc1C(=O)Nc1ccc(C(=O)N2CCCC(OCC(=O)NCC(N)=O)c3ccccc32)cc1 (stereo not drawn) [compound 285] | 180 nM | 8 nM
O=C(Nc1ccc(C(=O)N2CCCCc3ccccc32)cc1)c1cccc(O)c1 [compound 69] | 66 nM | 120 nM
CC(C)NCCCCOc1ccccc1C(=O)Nc1ccc(C(=O)N2CCCCc3ccccc32)cc1 [compound 68] | 13 nM | 190 nM
COc1cccc(C(=O)Nc2ccc(C(=O)N3CCCCc4ccccc43)cc2)c1 [compound 29] | 150 nM | 69 nM
COC1CCCN(C(=O)c2ccc(NC(=O)c3ccccc3C)cc2)c2ccccc21 (stereo not drawn) [compound 147] | 280 nM | 9 nM
CC(=O)NCCCCOc1ccccc1C(=O)Nc1ccc(C(=O)N2CCCCc3ccccc32)cc1 [compound 72] | 120 nM | 160 nM
Cc1ccccc1C(=O)Nc1ccc(C(=O)N2CCCC(OCC(=O)N3CCN(C)CC3)c3ccccc32)cc1 (stereo not drawn) [compound 277] | 230 nM | 16 nM
O=C(Nc1ccc(C(=O)N2CCCCc3ccccc32)cc1)c1ccccc1OCCCCO [compound 120] | 290 nM | 280 nM
CCN(CC)CCOc1ccccc1C(=O)Nc1ccc(C(=O)N2CCCCc3ccccc32)cc1 [compound 71] | 180 nM | 85 nM
CNC1CCCN(C(=O)c2ccc(NC(=O)c3ccccc3Cl)c(OC)c2)c2ccc(Cl)cc21 (stereo not drawn) [compound 321] | 59 nM | 12 nM
Cc1ccccc1C(=O)Nc1ccc(C(=O)N2CCCC(C)c3ccccc32)cc1 (stereo not drawn) [compound 208] | 110 nM | 7 nM
O=C(Nc1ccc(C(=O)N2CCCCc3ccccc32)cc1)C1CCCCC1 [compound 26] | 71 nM | 25 nM
CN1CCN(CCCCCCOc2ccccc2C(=O)Nc2ccc(C(=O)N3CCCCc4ccccc43)cc2)CC1 [compound 75] | 69 nM | 300 nM
Cc1ccccc1C(=O)Nc1ccc(C(=O)N2CCC(=O)Cc3ccccc32)cc1 [compound 193] | 170 nM | 36 nM
CC(=O)NCC1CCCN(C(=O)c2ccc(NC(=O)c3ccccc3C)cc2)c2ccccc21 (stereo not drawn) [compound 255] | 46 nM | 5 nM
NC(=O)COC1CCCN(C(=O)c2ccc(NC(=O)c3ccccc3Cl)cc2)c2ccccc21 (stereo not drawn) [compound 164] | 150 nM | 10 nM
CCN(CC(=O)Nc1ccc(C(=O)N2CCCC(NC)c3cc(Cl)ccc32)cc1)c1ccccc1 (stereo not drawn) [compound 307] | 24 nM | 10 nM
CNC1CCCN(C(=O)c2ccc(NC(=O)c3ccccc3C)c(OC)c2)c2ccc(Cl)cc21 (stereo not drawn) [compound 323] | 64 nM | 14 nM
Cc1ccccc1C(=O)Nc1ccc(C(=O)N2CCCC(OCC(=O)N3CCCC3C(N)=O)c3ccccc32)cc1 (stereo not drawn) [compound 284] | 290 nM | 19 nM
Cc1ccccc1C(=O)Nc1ccc(C(=O)N2CCCC(OCCCN3C(=O)c4ccccc4C3=O)c3ccccc32)cc1 (stereo not drawn) [compound 172] | 260 nM | 23 nM
COc1cc(C(=O)N2CCCCc3ccccc32)ccc1NC(=O)c1ccccc1 [compound 77] | 85 nM | 90 nM
